One substance from PMC8163063 (Chemical Science, 2020) can be followed below.

One test concerns Bacillus subtilis. Type of test: cell-based.
The subject of another test is Escherichia coli. It counts as cell-based.

In the case of “tachyplesin I (KWCFRVCYRGICYRRCR; not fully specified; Tachyplesin-1; UniProt P14213 24-40, looked up) [TPI-1]”, the “MIC against B. subtilis” value in the test on Bacillus subtilis is 4 µg/mL. The “MIC against E.coli” value in the test on Escherichia coli is on record as 4 µg/mL.
